Assay results: patent US9247746B2, “Fungicidal substituted 1-{2-cyclyloxy-2-[2-halo-4-(4-halogen-phenoxy)-phenyl]-ethyl}-1H-[1,2,4]triazole compounds” (BASF SE, priority 2011, dated 2016)

Legend:
Septoria tritici [1] = assay: Preventative control of leaf blotch on wheat (Septtr P7), green house; assay type: in vivo; details: inoculated 7 days after spraying, untreated control 90
Description: The spray solutions were prepared in several steps: The stock solution were prepared: a mixture of acetone and/or dimethylsulfoxide and the wetting agent/emulsifier Wettol, which is based on ethoxylated alkylphenoles, in a relation (volume) solvent-emulsifier of 99 to 1 was added to 25 mg of the compound to give a total of 5 ml. Water was then added to total volume of 100 ml. This stock solution was diluted with the described solvent-emulsifier-water mixture to the given concentration. G1. Preventative Control of Brown Rust on Wheat Caused by Puccinia recondita (Puccrt P1) G3. Preventative Control of Leaf Blotch on Wheat Caused by Septoria tritici (Septtr P7) Leaves of pot-grown wheat seedling were sprayed to run-off with an aqueous suspension of the active compound or their mixture, prepared as described. The plants were allowed to air-dry. Seven days later the plants were inoculated with an aqueous spore suspension of Septoria tritici. Then the trial plants were immediately transferred to a humid chamber at 18-22° C. and a relative humidity close to 100%. After 4 days the plants were transferred to a chamber with 18-22° C. and a relative humidity close to 70%. After 4 weeks the extent of fungal attack on the leaves was visually assessed as % diseased leaf area.

Septoria tritici [2] = assay: Microtest: activity against leaf blotch on wheat (Septtr); assay type: cell-based
Description: The active compounds were formulated separately as a stock solution having a concentration of 10000 ppm in dimethyl sulfoxide. M2. Activity Against Leaf Blotch on Wheat Caused by Septoria tritici(Septtr) The stock solutions were mixed according to the ratio, pipetted onto a micro titer plate (MTP) and diluted with water to the stated concentrations. A spore suspension of Septoria tritici in an aqueous biomalt or yeast-bactopeptone-glycerine solution was then added. The plates were placed in a water vapor-saturated chamber at a temperature of 18° C. Using an absorption photometer, the MTPs were measured at 405 nm 7 days after the inoculation.

Phakopsora pachyrhizi = assay: Protective control of soy bean rust on soy beans (Phakpa P2), green house; assay type: in vivo; details: inoculated 2 days after spraying, untreated control 90
Description: The spray solutions were prepared in several steps:
The stock solution were prepared: a mixture of acetone and/or dimethylsulfoxide and the wetting agent/emulsifier Wettol, which is based on ethoxylated alkylphenoles, in a relation (volume) solvent-emulsifier of 99 to 1 was added to 25 mg of the compound to give a total of 5 ml. Water was then added to total volume of 100 ml. This stock solution was diluted with the described solvent-emulsifier-water mixture to the given concentration. G1. Preventative Control of Brown Rust on Wheat Caused by Puccinia recondita (Puccrt P1)
G4. Protective Control of Soy Bean Rust on Soy Beans Caused by Phakopsora pachyrhizi (Phakpa P2)
Leaves of pot-grown soy bean seedlings were sprayed to run-off with an aqueous suspension, containing the concentration of active ingredient or their mixture as described below. The plants were allowed to air-dry. The trial plants were cultivated for 2 days in a greenhouse chamber at 23-27° C. and a relative humidity between 60 and 80%. Then the plants were inoculated with spores of Phakopsora pachyrhizi. To ensure the success the artificial inoculation, the plants were transferred to a humid chamber with a relative humidity of about 95% and 20 to 24° C. for 24 h. […] The extent of fungal attack on the leaves was visually assessed as % diseased leaf area.

Structure (SMILES)	Disease (%) at 16 ppm Septtr P7 (Septoria tritici [1])	Growth (%) at 0.00012 ppm Septtr (Septoria tritici [2])	Disease (%) at 63 ppm Phakpa P2 (Phakopsora pachyrhizi)
COC(C)(Cn1cncn1)c1ccc(Oc2ccc(Cl)cc2)cc1Cl (stereo not shown)	80%	63%	
CC(Cn1cncn1)(OCc1ccccc1)c1ccc(Oc2ccc(Cl)cc2)cc1Cl (stereo not shown) [I-1, 1-[2-benzyloxy-2-[2-chloro-4-(4-chlorophenoxy)phenyl]propyl]-1,2,4-triazole]		23%	
CCC(Cn1cncn1)(OC)c1ccc(Oc2ccc(Cl)cc2)cc1Cl (stereo not shown)			60%
